Assay results taken from patent publication US12466841B2, “Substituted pyrrolo[3,4-c]pyridines as HPK1 antagonists” (Nimbus Saturn, Inc., priority 2021, dated 2025).

Target: HPK1 (Homo sapiens (Human), UniProt Q92918)
Assay: HPK1 biochemical enzyme assay (microfluidic mobility shift)
Conditions: 1.5 nM HPK1, ATP 1 mM final, 60 min at RT, Caliper EZ Reader; read-out: HPK1 1000UMATP caliper IC50
Method: HPK1 biochemical enzyme assay: HPK1 enzyme inhibition was measured using a microfluidic mobility shift assay. Reactions were performed in a 384-well plate, containing 1.5 nM HPK1 (Invitrogen), in assay buffer (Cana Biosciences; pH 7.4). Test compounds were titrated in ten point curves (top final assay concentration 3 μM), and preincubated with enzyme/substrate mix for 30 min prior to initiation of the reaction by addition of ATP (1 mM final concentration) and substrate (1 μM final concentration; Carna Biosciences) diluted in assay buffer supplemented by MgCl2 (final assay concentration of 5 mM). Following 60 min incubation at RT, the reaction was terminated by addition of 60 μl/well termination buffer (Carna Biosciences) and signal determination using a Caliper EZ Reader (Perkin Elmer, UK).
Compounds having an activity designated as “A” provided an IC50≤100 nM; compounds having an activity designated as “B” provided an IC50>100 nM.

Sequence of HPK1 (Q92918 whole entry): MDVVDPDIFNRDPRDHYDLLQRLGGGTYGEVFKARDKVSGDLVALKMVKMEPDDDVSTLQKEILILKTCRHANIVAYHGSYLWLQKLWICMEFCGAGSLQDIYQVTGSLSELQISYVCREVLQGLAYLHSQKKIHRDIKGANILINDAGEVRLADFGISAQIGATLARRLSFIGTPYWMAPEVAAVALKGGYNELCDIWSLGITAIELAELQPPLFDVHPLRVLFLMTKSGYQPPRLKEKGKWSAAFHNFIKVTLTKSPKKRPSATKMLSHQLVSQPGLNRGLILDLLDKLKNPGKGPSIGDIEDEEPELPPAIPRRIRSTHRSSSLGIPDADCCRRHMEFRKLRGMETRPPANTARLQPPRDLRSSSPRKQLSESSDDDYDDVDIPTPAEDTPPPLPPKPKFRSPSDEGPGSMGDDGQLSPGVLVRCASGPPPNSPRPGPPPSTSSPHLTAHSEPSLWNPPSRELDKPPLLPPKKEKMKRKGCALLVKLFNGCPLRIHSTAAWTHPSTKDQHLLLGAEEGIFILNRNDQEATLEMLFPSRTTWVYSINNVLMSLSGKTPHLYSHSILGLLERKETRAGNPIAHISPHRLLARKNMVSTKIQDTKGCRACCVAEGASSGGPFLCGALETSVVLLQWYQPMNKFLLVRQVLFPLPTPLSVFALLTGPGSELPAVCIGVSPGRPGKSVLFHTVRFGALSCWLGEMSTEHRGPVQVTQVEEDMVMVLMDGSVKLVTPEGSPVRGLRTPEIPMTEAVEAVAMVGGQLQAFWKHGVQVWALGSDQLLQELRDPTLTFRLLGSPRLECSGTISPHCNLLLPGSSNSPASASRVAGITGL

| IC50 [nM] | Molecule |
| --- | --- |
| > 100 | Cn1ccc2c(-c3cnc(Nc4ccc(N5CCC(O)CC5)cn4)c4c3CNC4=O)ccnc21 [Compound I-10, 4-((5-(4-hydroxypiperidin-1-yl)pyridin-2-yl)amino)-7-(1-methyl-1H-pyrrolo[2,3-b]pyridin-4-yl)-1,2-dihydro-3H-pyrrolo[3,4-c]pyridin-3-one] |
| > 100 | Cn1ccc2c(-c3cnc(Nc4ccc(S(C)(=O)=O)cc4)c4c3CNC4=O)ccnc21 [Compound I-9, 7-(1-methyl-1H-pyrrolo[2,3-b]pyridin-4-yl)-4-((4-(methylsulfonyl)phenyl)amino)-1,2-dihydro-3H-pyrrolo[3,4-c]pyridin-3-one] |
| > 100 | Cn1ccc2c(-c3cnc(Nc4ccc(N5CCC(O)CC5)nc4)c4c3CNC4=O)ccnc21 [Compound I-1, 4-((6-(4-hydroxypiperidin-1-yl)pyridin-3-yl)amino)-7-(1-methyl-1H-pyrrolo[2,3-b]pyridin-4-yl)-1,2-dihydro-3H-pyrrolo[3,4-c]pyridin-3-one] |
| ≤ 100 | Cn1ccc2c(-c3cnc(Nc4ccc(N5CCC[C@@H](C(C)(C)O)C5)cc4)c4c3CNC4=O)ccnc21 [Compound I-12, (R)-4-((4-(3-(2-hydroxypropan-2-yl)piperidin-1-yl)phenyl)amino)-7-(1-methyl-1H-pyrrolo[2,3-b]pyridin-4-yl)-1,2-dihydro-3H-pyrrolo[3,4-c]pyridin-3-one] |
| ≤ 100 | Cn1cncc1-c1cnc(Nc2ccc(N3CCC[C@H](C(C)(C)O)C3)cc2)c2c1CNC2=O [Compound I-24, (S)-4-((4-(3-(2-hydroxypropan-2-yl)piperidin-1-yl)phenyl)amino)-7-(1-methyl-1H-imidazol-5-yl)-1,2-dihydro-3H-pyrrolo[3,4-c]pyridin-3-one] |
| ≤ 100 | CN(C)Cc1cc(Nc2ncc(-c3cnc4cc(F)ccn34)c3c2C(=O)NC3)ccc1C1CCOCC1 [Compound I-6, 4-((3-((dimethylamino)methyl)-4-(tetrahydro-2H-pyran-4-yl)phenyl)amino)-7-(7-fluoroimidazo[1,2-a]pyridin-3-yl)-1,2-dihydro-3H-pyrrolo[3,4-c]pyridin-3-one] |
| ≤ 100 | CN(C)C[C@@H]1CN(c2ccc(Nc3ncc(-c4ccnc5c4ccn5C)c4c3C(=O)NC4)cc2)CCO1 (single isomer, unassigned) [Compound I-17] |
| > 100 | CNC1CCN(c2ccc(Nc3ncc(-c4ccncc4)c4c3C(=O)NC4)cc2)CC1 [Compound I-23, 4-((4-(4-(methylamino)piperidin-1-yl)phenyl)amino)-7-(pyridin-4-yl)-1,2-dihydro-3H-pyrrolo[3,4-c]pyridin-3-one] |
| > 100 | 4-((3-((dimethylamino)methyl)-4-(4-hydroxypiperidin-1-yl)phenyl)amino)-7-(1-methyl-1H-pyrrolo[2,3-b]pyridin-4-yl)-1,2-dihydro-3H-pyrrolo[3,4-c]pyridin-3-one [Compound I-21] |
| ≤ 100 | CN(C)Cc1cc(Nc2ncc(-c3cnc4cc(F)ccn34)c3c2C(=O)NC3)ccc1[C@H]1CCOC1 [Compound I-19, (R)-4-((3-((dimethylamino)methyl)-4-(tetrahydrofuran-3-yl)phenyl)amino)-7-(7-fluoroimidazo[1,2-a]pyridin-3-yl)-1,2-dihydro-3H-pyrrolo[3,4-c]pyridin-3-one] |
| > 100 | CC(C)(O)C1CN(c2ccc(Nc3ncc(-c4ccncc4)c4c3C(=O)NC4)cc2)CCO1 (centres unmarked) [Compound I-27, 4-((4-(2-(2-hydroxypropan-2-yl)morpholino)phenyl)amino)-7-(pyridin-4-yl)-1,2-dihydro-3H-pyrrolo[3,4-c]pyridin-3-one] |
| > 100 | O=C1NCc2c(-c3cnc4cc(F)ccn34)cnc(Nc3ccc(N4CCC(O)CC4)cc3)c21 [Compound I-14, 7-(7-fluoroimidazo[1,2-a]pyridin-3-yl)-4-((4-(4-hydroxypiperidin-1-yl)phenyl)amino)-1,2-dihydro-3H-pyrrolo[3,4-c]pyridin-3-one] |
| ≤ 100 | Cn1ccc2c(-c3cnc(Nc4ccc(N5CCC[C@H](C(C)(C)O)C5)cc4)c4c3CNC4=O)ccnc21 [Compound I-11, (S)-4-((4-(3-(2-hydroxypropan-2-yl)piperidin-1-yl)phenyl)amino)-7-(1-methyl-1H-pyrrolo[2,3-b]pyridin-4-yl)-1,2-dihydro-3H-pyrrolo[3,4-c]pyridin-3-one] |
| > 100 | CN1CCN(c2ccc(Nc3ncc(-c4cnc5cc(F)ccn45)c4c3C(=O)NC4)cc2)CC1 [Compound I-15, 7-(7-fluoroimidazo[1,2-a]pyridin-3-yl)-4-((4-(4-methylpiperazin-1-yl)phenyl)amino)-1,2-dihydro-3H-pyrrolo[3,4-c]pyridin-3-one] |
| ≤ 100 | CN(C)C[C@H]1CN(c2ccc(Nc3ncc(-c4ccnc5c4ccn5C)c4c3C(=O)NC4)cc2)CCO1 (single isomer, unassigned) [Compound I-18] |
| ≤ 100 | Cc1ccc2c(-c3cnc(Nc4ccc(N5CCC(O)CC5)cc4)c4c3CNC4=O)cnn2c1 [Compound I-13, 4-((4-(4-hydroxypiperidin-1-yl)phenyl)amino)-7-(6-methylpyrazolo[1,5-a]pyridin-3-yl)-1,2-dihydro-3H-pyrrolo[3,4-c]pyridin-3-one] |
| > 100 | CC(C)(O)[C@H]1CN(c2ccc(Nc3ncc(-c4ccncc4)c4c3C(=O)NC4)cc2)CCO1 [Compound I-28, (R)-4-((4-(2-(2-hydroxypropan-2-yl)morpholino)phenyl)amino)-7-(pyridin-4-yl)-1,2-dihydro-3H-pyrrolo[3,4-c]pyridin-3-one] |
| ≤ 100 | Cn1ccc2c(-c3cnc(Nc4ccc(N5CCC(O)CC5)cc4)c4c3CNC4=O)ccnc21 [Compound I-8, 4-((4-(4-hydroxypiperidin-1-yl)phenyl)amino)-7-(1-methyl-1H-pyrrolo[2,3-b]pyridin-4-yl)-1,2-dihydro-3H-pyrrolo[3,4-c]pyridin-3-one] |
| > 100 | CN(C)Cc1cc(Nc2ncc(-c3cnc4cc(F)ccn34)c3c2C(=O)NC3)ccc1[C@@H]1CCOC1 [Compound I-20, (S)-4-((3-((dimethylamino)methyl)-4-(tetrahydrofuran-3-yl)phenyl)amino)-7-(7-fluoroimidazo[1,2-a]pyridin-3-yl)-1,2-dihydro-3H-pyrrolo[3,4-c]pyridin-3-one] |
| > 100 | COCC1(O)CCN(c2ccc(Nc3ncc(-c4cnc5cc(F)ccn45)c4c3C(=O)NC4)cc2CN(C)C)CC1 [Compound I-22, 4-((3-((dimethylamino)methyl)-4-(4-hydroxy-4-(methoxymethyl)piperidin-1-yl)phenyl)amino)-7-(7-fluoroimidazo[1,2-a]pyridin-3-yl)-1,2-dihydro-3H-pyrrolo[3,4-c]pyridin-3-one] |
| > 100 | CN1CCN(c2ccc(Nc3ncc(-c4ccncc4)c4c3C(=O)NC4)cc2)CC1 [Compound I-5, 4-((4-(4-methylpiperazin-1-yl)phenyl)amino)-7-(pyridin-4-yl)-1,2-dihydro-3H-pyrrolo[3,4-c]pyridin-3-one] |
| ≤ 100 | CC(C)(O)C1CN(c2ccc(Nc3ncc(-c4cnc5cc(F)ccn45)c4c3C(=O)NC4)cc2)CCO1 (centres unmarked) [Compound I-16, 7-(7-fluoroimidazo[1,2-a]pyridin-3-yl)-4-((4-(2-(2-hydroxypropan-2-yl)morpholino)phenyl)amino)-1,2-dihydro-3H-pyrrolo[3,4-c]pyridin-3-one] |
| > 100 | Cn1cncc1-c1cnc(Nc2ccc(N3CCC[C@@H](C(C)(C)O)C3)cc2)c2c1CNC2=O [Compound I-25, (R)-4-((4-(3-(2-hydroxypropan-2-yl)piperidin-1-yl)phenyl)amino)-7-(1-methyl-1H-imidazol-5-yl)-1,2-dihydro-3H-pyrrolo[3,4-c]pyridin-3-one] |
| > 100 | CC(C)(O)[C@@H]1CCCN(c2ccc(Nc3ncc(-c4cnc5cc(F)ccn45)c4c3C(=O)NC4)cc2)C1 (single isomer, unassigned) [Compound I-4] |
| > 100 | Cn1cncc1-c1cnc(Nc2ccc(N3CCNCC3)cc2)c2c1CNC2=O [Compound I-26, 7-(1-methyl-1H-imidazol-5-yl)-4-((4-(piperazin-1-yl)phenyl)amino)-1,2-dihydro-3H-pyrrolo[3,4-c]pyridin-3-one] |

| Molecule | IC50 [nM] |
| --- | --- |
| CN(C)Cc1cc(Nc2ncc(-c3ccnc4c3ccn4C)c3c2C(=O)NC3)ccc1N1CCOCC1 [Compound I-7, 4-((3-((dimethylamino)methyl)-4-morpholinophenyl)amino)-7-(1-methyl-1H-pyrrolo[2,3-b]pyridin-4-yl)-1,2-dihydro-3H-pyrrolo[3,4-c]pyridin-3-one] | ≤ 100 |
